The numbers were not newly measured in patent US9636301B2, “In vitro release assay for liposome encapsulated vincristine” (ARBUTUS BIOPHARMA CORPORATION, priority 2012, dated 2017), which cites them from elsewhere.

The conditions of this data set: water.

“22-oxovincaleukoblastine [Vincristine sulfate]”: the solubility result is on record as “soluble in water”.
